Data published in US7311918B2, “Rotavirus subunit vaccine” (Children's Hospital Medical Center, priority 1998, dated 2007).
Several values for one entry are separate records, joined by “and”; a condition that tells them apart may be missing. Equal values may be shown once. Entries after “also recorded” stand apart in the source; their conditions may differ.

Tested on: EDIM virus (murine rotavirus)
Format: in vivo, BALB/c mice
Settings: BALB/c mice, MBP::VP6 given intranasally with the adjuvant named

Row | Substance | Reduction in shedding
1 | QS-21 [reference compound] | 43%

Same assay, conditions: BALB/c mice, MBP::VP6 given orally with the adjuvant named

Row | Substance | Reduction in shedding
2 | QS-21 [reference compound] | 59%

Same assay, conditions: mouse, in vivo

Row | Substance | Mean reduction in rotavirus shedding (protection) | % Reduction in shedding | Shedding per mouse per day | Shedding, Day 7 | Shedding, Day 6
3 | 4: one of 11 overlapping synthetic peptides (18 to 31 amino acids) of the CD region of VP6, Table 10 (FNPVILRPNNVEVEFLLNGQVINTYQARF; Rotavirus VP6 fragment) [Peptide 4] | 77% |  |  |  | 
4 | Peptide 7: one of 11 overlapping synthetic peptides (18 to 31 amino acids) of the CD region of VP6, Table 10 (MTPAVTALFPNAQPFEHHATVGLTLRIDSA; Rotavirus VP6 fragment) | did not elicit protection | 18% | 185 |  | 
5 | Peptide 9: one of 11 overlapping synthetic peptides (18 to 31 amino acids) of the CD region of VP6, Table 10 (VLADASETMLANVTSVRQEYAI; Rotavirus VP6 fragment) | did not elicit protection | 0% | 275 |  | 
6 | Peptide 6: 25 mer synthetic peptide of the CD region of VP6 containing the 14-amino acid sequence RLSFQLMRPPNMTP, Table 10 (RNFDTIRLSFQLMRPPNMTPAVTAL; Rotavirus VP6 fragment) | 88% | 88% | 27 | 0 | 
7 | Peptide 11: one of 11 overlapping synthetic peptides (18 to 31 amino acids) of the CD region of VP6, Table 10 (TDLITNYSPSREDNLQRVFTVASIRSMLVK; Rotavirus VP6 fragment) | 64% | 64% | 80 | 0 | 30 and 29 and 41 and 36 and 23
8 | Peptide 5: one of 11 overlapping synthetic peptides (18 to 31 amino acids) of the CD region of VP6, Table 10 (NGQVINTYQARFGTIVARNFDTIRLSFQLM; Rotavirus VP6 fragment) | did not elicit protection | 0% | 341 |  | 
9 | RLSFQLMRPPNMTP [Peptide 6-14] | comparable protection to that of peptide 6; also recorded: nearly complete protection |  |  |  | 
10 | Peptide 3: one of 11 overlapping synthetic peptides (18 to 31 amino acids) of the CD region of VP6, Table 10 (FSFPRVINSADGATTWYFNPVILRPNNVEV; Rotavirus VP6 fragment) | 57% | 57% | 96 | 0 | 
11 | 2: one of 11 overlapping synthetic peptides (18 to 31 amino acids) of the CD region of VP6, Table 10 (PDAERFSFPRVINSADGA; Rotavirus VP6 fragment) [Peptide 2] | 70% |  |  |  | 
12 | Peptide 10: one of 11 overlapping synthetic peptides (18 to 31 amino acids) of the CD region of VP6, Table 10 (QEYAIPVGPVFPPGMNWTDLITNYSPSRED; Rotavirus VP6 fragment) | did not elicit protection | 0% | 1825 | 0 | 

Tested on: rotavirus (EDIM viral lysate)
Format: in vivo, BALB/c mice
Settings: mice immunized with MBP::VP6; intramuscularly with QS-21 versus intranasally with LT

Row | Substance | Serum IgG response
13 | QS-21 [reference compound] | greater IgG response
